According to publication PMC12441861, “Next-Generation Lipid Prodrugs Orally Deliver Tenofovir via Enhanced Chylomicron Incorporation” (ACS Pharmacology & Translational Science, 2025):
Read-outs that look alike come from different tables or passages of the source.

Experiments:
Cytotoxicity, MTT assay = settings: human, TZM-bl cells
Experimental: To measure cytotoxicity, HeLa-derived TZM-bl cells , were treated with serial dilutions of each drug, and viability was assessed after 48 h. Two methods were used: an ATP luminescence assay, which measures cellular ATP levels as an indicator of metabolic activity (compounds 8a–d), and an MTT assay, which evaluates cell viability via mitochondrial enzymatic activity (compounds 15b, 21a, and 21b).
The TZM-bl cell line (BEI Resources, ARP-8129) was used to evaluate both cell viability and HIV pseudovirus infectivity reduction. Cytotoxicity in this cell line was measured via two methods. The first method, an ATP luminescence assay, was used for compounds 15a, 15b, 21a, and 21b as such: 6000 TZM-bl cells per well were seeded in a 96-well plate and incubated at 37 °C with 5% CO2 for 24 h. Compounds were prepared as serial dilutions (final concentrations of 1, 0.2, 0.04, 0.008, and 0.0016 μM) in complete DMEM with DEAE-Dextran at 40 μg/mL to mimic HIV infectivity conditions. Solutions were added to the cells and incubated for another 48 h. Viability was assessed using the Promega Cell Titer Glow (CTG) Assay (cat No. G9242) by adding a 50% PBS-CTG solution to each well and measuring luminescence, which correlates with ATP levels, on an Agilent BioTek Synergy HT reader. Cytotoxicity of compounds 8a–d was determined using a colorimetric assay based the conversion of MTT (3-(4,5-dimethylthiazol-2-yl)-2,5-diphenyltetrazolium bromide) to formazan as described previously. TZM-bl cells were plated into 96-well tissue culture plates 1 day prior to performing the MTT assay. A series of 10 3-fold dilutions of each compound was performed from a starting concentration of 10 mM and each dilution was tested for a reduction in cell viability according to the manufacturer’s instructions (CyQuant MTT Cell Viability Assay, ThermoFisher, V13154). Wells containing TZM-bl cells with media only were used as a control. Briefly, serial dilutions of each test compound were added to the plated TZM-bl cells. At 48 h, the media was removed and replaced with 100 mL of fresh culture medium. 10 mL of 12 mM MTT solution was added to each well and incubated at 37 °C for 4 h. 85 mL of supernatant was then removed from each well and replaced with 50 mL of DMSO. Following a 10 min incubation at 37 °C, the absorbance of each well was determined at 540 nm using a Biotek Synergy Neo2 multimode reader and Gen5 v3.02 software.

[1] = Metabolic stability in human liver microsomes; format: in vitro ADME; settings: pH 7.4, read-out: Metabolic Stability HLM t1/2
Experimental: Assays employed human liver microsomes (HLMs, 20 mg/mL) from Xenotech. A 10 mM NADPH stock was prepared in deionized H2O, and test compounds were dissolved in 100% MeOH to a final concentration of 10 mM. The stock solutions were diluted to 500 μM in 100 mM potassium phosphate buffer (pH 7.4), keeping the final MeOH concentration below 0.2%. Reaction mixtures were prepared by combining 928 μL phosphate buffer, 55 μL liver microsomes, and the test compound solution to a final concentration of 3 μM. Verapamil was used as a positive control. The reactions were initiated with the addition of 110 μL of 10 mM NADPH. Aliquots were taken in duplicate at 0, 5, 10, 15, and 30 min, quenched with 100 μL of cold MeOH containing 2 μM internal standard (d 5-7-ethoxy coumarin), and centrifuged at 12,000 RCF for 5 min. The supernatants were then transferred to LC-MS vials for analysis. The average of each duplicate was normalized to the 0 min time point, representing 100% remaining (0% metabolism).

[2] = cited from earlier work
[3] = cited from earlier work; remark: listed apart in the source
Caco-2 cell-derived CMs = format: in vitro ADME, human; settings: 10 μM test drug, Caco-2 cells
Experimental: [formula] 1 Chylomicron (CM) Isolation and Drug Quantification Methods ^a a (1) Caco-2 cells were grown to confluence. (2) Lipid mix was added to media (final drug concentration of 10 μM), and cells were incubated for 4 h. (3) Cells were washed 3× with PBS. (4) Cells were incubated in fresh media overnight. (5) CM-containing media was collected. (6) Media was combined with a 1.20 g/mL NaCl solution in an ultracentrifugation tube, 500 μL H2O was carefully layered on top, and the mixture was centrifuged at 10,950 RCF for 3 h. (7) The CM-containing upper layer was carefully isolated with a fine-tip pipette. (8) Test drug was then extracted from the CM layer with 70% ACN and quantified using LC-MS/MS.
With the presence of CMs in isolated Caco-2 cell extracts confirmed and reproducibility validated across replicates and different drugs, we were eager to investigate drug incorporation during CM biogenesis in vitro. Accordingly, we added test compound (Figure ) to differentiated Caco-2 cells along with the lipid mix to a final test drug concentration of 10 μM. While 10 μM was selected as a standard concentration for these studies, higher concentrations could allow detection of other compounds with low CM association in future experiments. In either case, CMs secreted by Caco-2 cells can be isolated postincubation, and drug concentrations within CMs can be assessed using highly sensitive LC-MS/MS methodology. Positive (high c Log D) and negative (low c Log D) control compounds were selected to validate this assay. […] Given these properties, we expected CAB to readily package into CMs in vitro. […]. […] This sets the stage for quantitative comparisons of TXL and its functionalized analogs, which are detailed below.
At 14-days postconfluence, Caco-2 cells were incubated in a lipid mixture to induce secretion of CMs. For the lipid solution, oleic acid (50 mg), lecithin (40 mg), and sodium taurocholate (48 mg) were weighted out into an Eppendorf tube, and the volume was brought up to 900 μL with PBS, followed by vigorous vortexing to ensure sample homogeneity. This 100× lipid mixture was then diluted into growth media to achieve the desired concentrations (2 mM oleic acid, 1.36 mM lecithin, 1 mM sodium taurocholate) by adding 500 μL of the lipid mixture to 49.5 mL of media. The lipid-supplemented media was thoroughly mixed and sterilized by filtration using a 250 mL sterile vacuum filter. For the drug-exposed CM experiments, each test compound was dissolved in 2 mM human serum albumin (HAS, Sigma, essentially fatty acid free) in DPBS, then added to 10 mL aliquots of lipid-containing media to achieve a final concentration of 10 μM. Subsequently, lipid-containing media was added to Caco-2 cells and incubated for 4 h at 37 °C. After incubation, cells were washed twice with PBS then incubated for 4, 8, or 20 h at 37 °C in fresh, colorless growth medium. Media was collected into 15 mL falcon tubes and centrifuged at 2000g to remove cell debris. Postcentrifugation, the supernatant was transferred to 50 mL Nalgene Oak Ridge High-Speed PPCO Centrifuge Tubes. Next, to adjust the density for ultracentrifugation, 1.19 g of NaCl in 2 mL of deionized (DI) H2O were added to reach a final volume of 5 mL, corresponding to a density of 1.20 g/mL. This mixture was dissolved by vortexing and balanced by weight. 500 μL of DI H2O was carefully overlaid onto the mixture. Ultracentrifugation was performed for 2 h and 30 min at 10,920 relative centrifugal force (RCF). Immediately after centrifugation, the top 500 μL layer, containing CMs, was carefully collected using a gel-loading pipet tip.
To an aliquot of CM extract was added an equal volume of ACN into 1.5 mL Eppendorf tubes. Tubes were shaken for 1 h at rt then centrifuged at 15,000 RCF to remove debris. The clear supernatant was transferred to a glass vial and concentrated under reduced pressure to yield a dry solid. Sample was then reconstituted in 70% ACN in H2O, filtered and then analyzed. […]

Compound: CCCCCCCCCCCCCCCCOC[C@@H](COP(=O)(O)CO[C@H](C)Cn1cnc2c(N)ncnc21)OCc1ccccc1 [8a, Ammonium[(1R)-2-(6-aminopurin-9-yl)-1-methyl-ethoxy]methyl-[(2S)-2-benzyloxy-3-hexadecoxy-propoxy]phosphinate]
- CC50 at 48 h (Cytotoxicity, MTT assay): > 10 µM
- half-life at 3 µM [1]: > 2 h

Compound: CCCCCCCCCCCCCCCCCCOC[C@@H](COP(=O)(O)CO[C@H](C)Cn1cnc2c(N)ncnc21)OCc1ccccc1 [8b, Ammonium[(1R)-2-(6-aminopurin-9-yl)-1-methyl-ethoxy]methyl-[(2S)-2-benzyloxy-3-octadecoxy-propoxy]phosphinate]
- CC50 at 48 h (Cytotoxicity, MTT assay): > 10 µM
- half-life at 3 µM [1]: > 2 h

Compound: CCCCCCCCCCCCCCCCOC[C@H](COP(=O)(O)CO[C@H](C)Cn1cnc2c(N)ncnc21)OCc1ccccc1 [8c, Ammonium[(1R)-2-(6-aminopurin-9-yl)-1-methyl-ethoxy]methyl-[(2R)-2-benzyloxy-3-hexadecoxy-propoxy]phosphinate]
- CC50 at 48 h (Cytotoxicity, MTT assay): > 10 µM
- half-life at 3 µM [1]: > 2 h

Compound: CCCCCCCCCCCCCCCC(=O)OCC(COC(=O)CCCCCCCCCCCCCCC)OC(=O)CC(C)CC(=O)Oc1cc(C)cc(C)c1C(C)(C)CC(=O)Oc1ccc2c3c1O[C@H]1[C@@]4(OC)CC[C@@]5(C[C@@H]4[C@](C)(O)C(C)(C)C)[C@@H](C2)N(CC2CC2)CC[C@]315 (stereo partly shown) [BUP-TML-C5βMe-TG]
- oral dose recovered in mesenteric lymph ([2]; within 6 h, ref Quach 2022): 44.7% oral dose recovered in mesenteric lymph within 6 h
- Δ Oral Availability (% versus Parent) ([3]; parent Buprenorphine, ref Quach 2022): 83%

Compound: CO[C@H]1C(=O)[C@]2(C)[C@@H](OC)C[C@H]3OC[C@@]3(OC(C)=O)[C@H]2[C@H](OC(=O)c2ccccc2)[C@]2(O)C[C@H](OC(=O)[C@H](O)[C@@H](NC(=O)OC(C)(C)C)c3ccccc3)C(C)=C1C2(C)C [CAB, Cabazitaxel, reference compound]
- detection of compound in CM extract by LC-MS/MS (Caco-2 cell-derived CMs): presence

Compound: CCCCCCCCCCCCCCCCCCCC(=O)OCC(COP(=O)([O-])OCC[N+](C)(C)C)OC(=O)C(CCC)CCC (stereo not shown) [DP-VPA]
- orally-dosed drug recovered in mesenteric lymph ([2]; ref Dahan 2008): 60% orally-dosed drug recovered in mesenteric lymph
- Δ Oral Availability (% versus Parent) ([3]; parent Valproic Acid, ref Dahan 2008): 9%

Compound: CCCCCCCCCCCCCCCC(=O)OCC(COC(=O)CCCCCCCCCCCCCCC)OC(=O)CCCSSCCCC(=O)O[C@@H](C(=O)O[C@H]1C[C@@]2(O)[C@@H](OC(=O)c3ccccc3)[C@@H]3[C@]4(OC(C)=O)CO[C@@H]4C[C@H](O)[C@@]3(C)C(=O)[C@H](O)C(=C1C)C2(C)C)[C@@H](NC(=O)OC(C)(C)C)c1ccccc1 [DTX-S-S-TG]
- Evidence of Lymphatic Uptake ([2]; ref Tian 2019): Cycloheximide inhibition reduces lymphatic transport and prodrug bioavailability
- Δ Oral Availability (% versus Parent) ([3]; parent Docetaxel, ref Tian 2019): 44%

Compound: CN(C)C(=N)N=C(N)N [MET, metformin, reference compound]
- detection of compound in CM extract by LC-MS/MS (Caco-2 cell-derived CMs): absence

Compound: CCCCCCCCCCC(=O)O[C@H]1CC[C@H]2[C@@H]3CCC4=CC(=O)CC[C@]4(C)[C@H]3CC[C@]12C [Testosterone Undecanoate (TU), Testosterone Undecanoate]
- lymphatic transport as share of systemic availability ([2]; oral administration, ref not printed in text (Table 1: Shackleford 2003)): 91.5–99.7%
- Δ Oral Availability (% versus Parent) ([3]; parent Testosterone, ref Shackleford 2003): 7%

Compound: CCCCCCCCCCCCCCCC(=O)OCC(COC(=O)CCCCCCCCCCCCCCC)OC(=O)CC(C)CC(=O)OCOC1CCC2C3CCC4=CC(=O)CCC4(C)C3CCC12C (stereo not shown) [Testosterone-ASI-C5-βMe-TG]
- orally-dosed drug recovered in mesenteric lymph ([2]; ref Hu 2016): 28% orally-dosed drug recovered in mesenteric lymph (0% for parent)
- Δ Oral Availability (% versus Parent) ([3]; parent Testosterone, ref Hu 2016): 90%

Compound: C[C@]12CC[C@H]3[C@@H](CCC4=CC(=O)CC[C@@]43C)[C@@H]1CC[C@@H]2O [Testosterone]
- orally-dosed drug recovered in mesenteric lymph ([2]; in vivo, po): 28% orally-dosed drug recovered in mesenteric lymph (0% for parent)
